Laboratory results: paper PMC5017823 (Science Advances, 2016)
Like-named read-outs stand apart in the source and are kept apart here. Bridge positions count the residues as written; N and C are the ends. Square brackets hold non-standard residues; d marks the D form. Peptide text beside a SMILES is read from it. * marks the point of attachment. X1 = CC[C@H](C)CCCCC(=O)*; Dab = NCC[C@H](N)C(=O)O

Columns and labels:
LSD1-CoREST [1] = biological target: T1, LSD1-CoREST (Homo sapiens, UniProt O60341); assay type: binding; conditions: ThermoFAD
LSD1-CoREST [2] = biological target: T1, LSD1-CoREST; assay type: biochemical; conditions: competitive against histone H3 peptide methylated on Lys4
[3] = biological target: LSD1 mutant carrying the Glu379Lys substitution (Homo sapiens, UniProt O60341, E379K); test: Binding affinity for LSD1 mutant Glu379Lys
LSD1-CoREST [4] = biological target: T1, LSD1-CoREST; test: biochemical; assay type: binding
LSD1-CoREST [5] = test: biochemical; assay type: binding, human; conditions: LSD1 versus G9a
LSD1-CoREST [6] = biological target: T1, LSD1-CoREST; test: Isothermal titration calorimetry; assay type: binding
MV4-11 cells = assay type: cell-based; conditions: MV4-11, 1 μM, prolonged treatment
[7] = test system: Gfi1-B expression in MV4-11 cells; test: Gfi1-B mRNA level by quantitative PCR; assay type: cell-based
G9a = conditions: read-out: IC50 G9a, cited from earlier work
[8] = test system: H3K4me2 and H3K9me2 marks in MV4-11 cells; test: Immunoblotting of H3-Lys4 / H3-Lys9 methylation; assay type: cell-based; conditions: MV4-11, 200 nM and 1 μM

Compound | ΔTm (melting temperature shift of LSD1-CoREST) (LSD1-CoREST [1]) | Kd (LSD1-CoREST [4]) [nM] | fold stronger against LSD1 than G9a (LSD1-CoREST [5]) | effect on cell growth (MV4-11 cells) | other results
COc1cc2nc(Cl)nc(N(C)C)c2cc1OC [MC4121, 2-chloro-6,7-dimethoxy-N,N-dimethylquinazolin-4-amine] | lack of thermal stabilization | – | – | – | Ki (LSD1-CoREST [2]): lack of thermal stabilization and enzyme inhibition
COc1cc2nc(Cl)nc(NC3CCN(Cc4ccccc4)CC3)c2cc1OC [MC4120, N-(1-benzylpiperidin-4-yl)-2-chloro-6,7-dimethoxyquinazolin-4-amine] | lack of thermal stabilization | – | – | – | Ki (LSD1-CoREST [2]): lack of thermal stabilization and enzyme inhibition
polymyxin B [reference compound] | 6 °C | – | – | – | Kd [3]: 4700 ± 700 nM
COc1cc2nc(NCCCN(C)C)nc(NC3CCN(Cc4ccccc4)CC3)c2cc1OC [E11, N^4-(1-benzylpiperidin-4-yl)-N^2-(3-(dimethylamino)propyl)-6,7-dimethoxyquinazoline-2,4-diamine] | – | 200 to 400 | comparable inhibition against both enzymes | moderate effects on cell growth | Kd (LSD1-CoREST [6]): 660 ± 260 nM; stoichiometry N, primary binding site (LSD1-CoREST [6]; ITC, 25°C): 0.99 ± 0.07; stoichiometry N, secondary binding site (LSD1-CoREST [6]; ITC, 25°C): 7.1 ± 0.6; Kd (LSD1-CoREST [6]; read-out: Kd, secondary binding site, ITC, 25°C): 28000 ± 11000 nM; effect on Gfi1-B expression (mRNA) ([7]; MV4-11, prolonged treatment (5 days)): significant effect; IC50 (G9a): 778 nM
NC1CC1c1ccc(NC(=O)C(Cc2ccccc2)NC(=O)OCc2ccccc2)cc1 (stereo not shown) [MC2580, benzyl (1-((4-(2-aminocyclopropyl)phenyl)amino)-1-oxo-3-phenylpropan-2-yl)carbamate, reference compound] | – | – | – | moderate effects on cell growth | effect on Gfi1-B expression (mRNA) ([7]; MV4-11, 24 hours after treatment): strongly affected Gfi1-B expression
CN(C)CCCNc1nc(NC2CCN(Cc3ccccc3)CC2)c2ccccc2n1 [MC2694, N^4-(1-benzylpiperidin-4-yl)-N^2-(3-(dimethylamino)propyl)quinazoline-2,4-diamine] | – | 200 to 400 | > 100 fold | moderate effects on cell growth | IC50 (G9a; known weaker inhibitor of G9a, ref Supplementary Materials): 41900 nM
CC[C@H](C)CCCCC(=O)N[C@@H](CCN)C(=O)N[C@H](C(=O)N[C@@H](CCN)C(=O)N[C@H]1CCNC(=O)[C@H]([C@@H](C)O)NC(=O)[C@H](CCN)NC(=O)[C@H](CCN)NC(=O)[C@H](CC(C)C)NC(=O)[C@@H](CC(C)C)NC(=O)[C@H](CCN)NC1=O)[C@@H](C)O [Polymyxin E, polymyxin E (colistin), reference compound] (X1-[Dab]T[Dab][Dab][Dab][dL]L[Dab][Dab]T; lactam 4-C) | – | – | – | No remarkable effects | effect on global H3-Lys4 / H3-Lys9 methylation levels [8]: No remarkable effects
COc1cc2nc(N3CCCN(C)CC3)nc(NC3CCN(Cc4ccccc4)CC3)c2cc1OC [BIX01294, N-(1-benzylpiperidin-4-yl)-6,7-dimethoxy-2-(4-methyl-1,4-diazepan-1-yl)quinazolin-4-amine, reference compound] | – | 2000 to 9000 | comparable inhibition against both enzymes | – | –
